Test results published in paper PMC4038355 (Molecular microbiology, 2014).

Target: T1, TstT (LVIS_0852) (Levilactobacillus brevis, UniProt Q03S28)
T1 sequence (Q03S28 1-120): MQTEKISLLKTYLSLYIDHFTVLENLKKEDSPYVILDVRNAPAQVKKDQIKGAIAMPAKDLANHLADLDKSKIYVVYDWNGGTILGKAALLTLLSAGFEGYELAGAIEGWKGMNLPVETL
Assay type: biochemical

With `O=S(O)O` [sulfite] the “% decrease at 100 μM” value was 40%.
